The source of these data is patent publication US6369057B1, “Quinoxalines, processes for their preparation and their use” (Aventis Pharma Deutschland GmbH, priority 1991, dated 2002).

Converted amounts (≈) assume the structure as drawn. Where a name gives a salt, the structure may show the parent alone.

One data set relates to HIV. Briefly: Test of preparations against HIV in cell culture (T-cell culture assay). The data set is classed as cell-based. The settings on record: lowest concentration where no giant cells were observed, HIV-infected lymphocytes from donor blood, 3 days at 37° C.; for MIC: Human immunodeficiency virus 1, 72 h.
The target of data set [1] is T1, HIV reverse transcriptase (RT) (Human immunodeficiency virus type 1 group M subtype B, UniProt P03366).
T1 construct: The enzyme RT (from HIV cloned in E. coli); purchased HT-Biotechnology Ltd, Cambridge, UK; host or cells: E. coli
Briefly: Assay for HIV reverse transcriptase inhibition (scintillation proximity assay). The data set is classed as biochemical. The settings on record: RT from HIV cloned in E. coli, SPA, 60 minutes (37° C.); for IC50: read-out: Reverse Transcriptase Assay IC50 (converted). As to the method:
Assay of the Substances for HIV Reverse Transcriptase Inhibition
The activity of reverse transcriptase (RT) was determined with the aid of a scintillation proximity assay (SPA).
The reagent kit for the RT-SPA was obtained from Amersham/Buchler (Braunschweig).
The enzyme RT (from HIV cloned in E. coli) originated from HT-Biotechnology Ltd, Cambridge, UK.
The assay was carried out using the manufacturer's (Amersham) protocol manual, with the following modifications: bovine serum albumin was added to the assay buffer to give an end concentration of 0.5 mg/ml the assay was carried out in Eppendorf reaction vessels, using 100 μl volume per batch the manufacturer's RT concentrate (5000 U/ml) was diluted in Tris-HCl buffer 20 mM; pH 7.2; 30% of glycerol, to an activity of 15 U per ml the incubation time for the mixtures was 60 minutes (37° C.) after stopping the reaction and “developing” with the bead suspension, 130 μl of mixture were transferred to 4.5 ml of Tris-HCl buffer, 10 mM; pH 7.4; 0.15 M NaCl, and the tritium activity was measured by means of a [formula]-counter.
For a pre-assay for inhibitory activity, the substances were dissolved in DMSO (stock solution c=1 mg/ml), and tested as a 10^−1, 10^−2, 10^−3, etc., dilution in DMSO.
To determine IC50 values, the inhibitor stock solutions were diluted further in Tris-HCl buffer, 50 mM, pH 8, and tested in suitable concentrations.
The concentration corresponding to a 50% enzyme inhibition was determined from a plot of RT activity versus log Clnh.

In general, melting point refers to the temperature, or range, at which the solid turns liquid. By IC50 is commonly meant the concentration at which inhibition is half-maximal.

`CC(C)CC1Nc2c(S(=O)(=O)Oc3ccccc3)ccc(N3CCN(C)CC3)c2NC1=O` (stereo not drawn) (as salt: hydrochloride) [XXXII, 8-(4-Methyl-1-piperazinyl)-3-(2-methylpropyl)-5-phenoxysulfonyl-3,4-dihydroquinoxalin-2(1H)-one]: the melting point is ≥ 90 °C (dec.).

`CC1C(=O)Nc2ccc(Cl)cc2N1C1CC1` (racemic) [Example XVIII, (3RS)-6-Chloro-4-N-(cyclopropyl)-3-methyl-3,4-dihydroquinoxalin-2(1H)-one] had a melting point of 167 °C.

For `CC(C)=CCN1c2ccccc2NC(=O)C1C` (racemic) [XXV, (3RS)-3-Methyl-4-N-(3-methyl-2-buten-1-yl)-3,4-dihydroquinoxalin-2(1H)-one], the melting point fell in the range of 92 to 93 °C.

`CC(=O)CCN1c2ccccc2NC(=O)C1C` (racemic) [XXXIV, (3RS)-3-Methyl-4-N-(3-oxo-1-butyl)-3,4-dihydroquinoxalin-2(1H)-one] gave a melting point of 108 to 109 °C.

`CC1C(=O)Nc2ccc(Cl)cc2N1Cc1cc(Cl)cc(Cl)c1` (stereo not drawn) [Example 10-28]: the “T-cell culture assay MIC” value in the data set on HIV is below 0.8 µg/mL. Moreover, the “Reverse Transcriptase Assay IC50” value in data set [1] is 0.1 to 1 µg/mL.

Take `CC(C)OC(=O)N1c2cc(Cl)ccc2NC(=O)C1C` (stereo not drawn) [Example 11-11]: the “T-cell culture assay MIC” value with HIV is 0.01 µg/mL. In addition, in data set [1], the “Reverse Transcriptase Assay IC50” value lay in the range of 0.1 to 1 µg/mL.

`C[C@@H]1Nc2cc(Cl)ccc2NC1=O` [Example IB, (3S)-6-Chloro-3-methyl-3,4-dihydroquinoxalin-2(1H)-one] showed a melting point of 122 to 123 °C.

`C[C@H]1Nc2cc(Cl)ccc2NC1=O` [Example IC, (3R)-6-Chloro-3-methyl-3,4-dihydroquinoxalin-2(1H)-one]: the melting point was in the range of 123 to 124 °C.

The compound `O=C1Nc2cc(Cl)ccc2N[C@H]1Cc1ccccc1` [Example II, (3S)-3-Benzyl-7-chloro-3,4-dihydroquinoxalin-2(1H)-one] returned a melting point of 185 °C.

For `C[C@H]1C(=O)Nc2c(cc(Cl)cc2[N+](=O)[O-])N1C(=O)OCc1ccccc1` [Example IV, (3S)-4-N-(Benzyloxycarbonyl)-6-chloro-3-methyl-8-nitro-3,4-dihydroquinoxalin-2(1H)-one], the melting point came to 85 °C. In the data set with HIV, the MIC was above 0.8 µg/mL.

`C[C@H]1C(=O)Nc2c(N)cc(Cl)cc2N1C(=O)OCc1ccccc1` [Example V, (3S)-8-Amino-4-N-(benzyloxycarbonyl)-6-chloro-3-methyl-3,4-dihydroquinoxalin-2(1H)-one] registered a melting point of 152 to 154 °C. In data set [1], the IC50 was 21700 nM.

`C[C@H]1C(=O)Nc2ccc(Cl)cc2N1C(=O)Oc1ccc(F)cc1` [Example X, (3S)-6-Chloro-4-N-(4-fluorophenoxycarbonyl)-3-methyl-3,4-dihydroquinoxalin-2(1H)-one]: the melting point fell in the range of 168 to 170 °C. The same compound displayed an MIC in the data set on HIV of 0.8 µg/mL (≈ 2.39 µM).

In the case of `C[C@H]1C(=O)Nc2ccc(Cl)cc2N1C(=O)Oc1ccc(Cl)cc1` [Example XI, (3S)-6-Chloro-4-N-(4-chlorophenoxycarbonyl)-3-methyl-3,4-dihydroquinoxalin-2(1H)-one], the melting point lay in the range of 185 to 188 °C.

`C[C@H]1C(=O)Nc2ccc(Cl)cc2N1C(=O)OCCBr` [Example XII, (3S)-4-N-(2-Bromoethyloxycarbonyl)-6-chloro-3-methyl-3,4-dihydroquinoxalin-2(1H)-one] came in with a melting point of 133 to 136 °C. Besides, the MIC in the data set with HIV was below 0.8 µg/mL.

Turning to `C=C(C)OC(=O)N1c2cc(Cl)ccc2NC(=O)[C@@H]1C` [Example XIII, (3S)-6-Chloro-N-(isopropenyloxycarbonyl)-3-methyl-3,4-dihydroquinoxalin-2(1H)-one], in the data set on HIV, the “T-cell culture assay MIC” value is below 0.16 µg/mL. In addition, the “Reverse Transcriptase Assay IC50” value in data set [1] was 0.04 µg/mL.

`CC(C)=CCN1CC(=O)Nc2ccc(Cl)cc21` [Example XV, 6-Chloro-4-N-(3-methyl-2-buten-1-yl)-3,4-dihydro-quinoxalin-2(1H)-one]: the melting point lay within 150 to 151 °C.

For the compound `C=CC(C)(C)C1C(=O)Nc2ccc(Cl)cc2N1CC=C(C)C` (stereo not drawn) [Example XVI, 6-Chloro-4-N-(3-methyl-2-buten-1-yl)-3-(1,1-dimethyl-2-propen-1-yl)-3,4-dihydroquinoxalin-2(1H)-one], the melting point was in the range of 110 to 112 °C.

For `COc1cc2c(cc1OC)NC(C)C(=O)N2` (stereo not drawn) [Example XVII, 6,7-Dimethoxy-3-methyl-3,4-dihydroquinoxalin-2(1H)-one], the melting point turned out to be 151 °C.

For the compound `CC(C)=CCN1CC(=O)Nc2cc(S(=O)(=O)Oc3ccccc3)ccc21` [Example XXX, 4-(3-Methyl-2-buten-1-yl)-7-phenoxysulfonyl-3,4-dihydroquinoxalin-2(1H)-one], the melting point was found to be 132 °C.

Regarding `C[C@H]1C(=O)Nc2ccc(Cl)cc2N1C(=O)Cl` [Example XXXV, (3S)-6-Chloro-4-N-chlorocarbonyl-3-methyl-3,4-dihydroquinoxalin-2(1H)-one], the melting point was in the range of 142 to 144 °C.

As for `COc1ccc(OC(=O)N2c3cc(Cl)ccc3NC(=O)[C@@H]2C)cc1` [IX, (3S)-6-Chloro-4-N-(4-methoxyphenoxycarbonyl)-3-methyl-3,4-dihydroquinoxalin-2(1H)-one], the melting point lay in the range of 187 to 190 °C.

Consider `CC(C)=CCN1c2cc(Cl)ccc2NC(=O)[C@@H]1C` [VI-A, (3S)-6-Chloro-3-methyl-4-N-(3-methyl-2-buten-1-yl)-3,4-dihydroquinoxalin-2(1H)-one], for which the melting point fell in the range of 117 to 118 °C. Besides, the MIC with HIV stood at 0.16 µg/mL (≈ 0.604 µM). Moreover, in data set [1], the IC50 is 302 nM.

Take `CC=CCN1c2cc(Cl)ccc2NC(=O)[C@@H]1C` [VII, (3S)-6-Chloro-3-methyl-4-N-(2-buten-1-yl)-3,4-dihydroquinoxalin-2(1H)-one]: the melting point was 87 to 88 °C. The MIC in the data set with HIV was below 0.16 µg/mL. In addition, the IC50 in data set [1] is 399 nM.

Regarding `C=C(C)OC(=O)N1c2ccc(C)cc2NC(=O)C1(C)C` [VIII, 4-N-(Isopropenyloxycarbonyl)-3,3,7-trimethyl-3,4-di-hydroquinoxalin-2(1H)-one], the melting point was 185 °C.

Compound `C=COC(=O)N1c2cc(Cl)ccc2NC(=O)[C@@H]1C` [XIV, (3S)-6-Chloro-3-methyl-4-N-(vinyloxycarbonyl)-3,4-di-hydroquinoxalin-2(1H)-one] displayed a melting point of 177 to 179 °C. Also, in the data set with HIV, the MIC was below 0.16 µg/mL. For the same compound, the IC50 in data set [1] was 600 nM.

With `CC1(C)Nc2ccc(Cl)cc2N(C2CC2)C1=O` [XIX, 7-Chloro-1-N-(cyclopropyl)-3,3-dimethyl-3,4-dihydroquinoxalin-2(1H)-one], the melting point fell in the range of 132 to 133 °C.

`C=C(C)OC(=O)N1c2cc(Cl)ccc2NC(=S)[C@@H]1C` [XXIII, (3S)-6-Chloro-4-N-(isopropenyloxycarbonyl)-3-methyl-3,4-dihydroquinoxaline-2(1H)-thione] came in with a melting point of 148 to 150 °C. The compound also came in with an MIC in the data set with HIV below 0.01 µg/mL. For the same compound, in data set [1], the IC50 was 84.2 nM.

In the case of `O=C1CNc2ccc(S(=O)(=O)Oc3ccccc3)cc2N1` [XXIX, 7-Phenoxysulfonyl-3,4-dihydroquinoxalin-2(1H)-one], the melting point was 253 to 254 °C.

For `O=C1Nc2cc(S(=O)(=O)Oc3ccccc3)ccc2N2C(=O)CCC12` (stereo not drawn) [XXVII, 7-Phenoxysulfonyl-3,3a-dihydropyrrolo[1,2-a]quinoxaline-1,4(2H,5H)-dione], the melting point was 140 °C (dec.).

`COCCOC(=O)N1c2cc(Cl)ccc2NC(=O)[C@@H]1C` [XXXVI, (3S)-6-Chloro-4-N-(2-methoxyethoxycarbonyl)-3-methyl-3,4-dihydroquinoxalin-2(1H)-one] returned a melting point of 93 to 94 °C.
